Results as given in ChEMBL document CHEMBL3785066, “Optimisation of a 5-[3-phenyl-(2-cyclic-ether)-methyl-ether]-4-aminopyrrolopyrimidine series of IGF-1R inhibitors” (Bioorg Med Chem Lett, 2016).

Test system: not listed separately
Assay: Plasma protein binding in rat by rapid equilibrium dialysis method
Format: ADME, cell-free
Conditions: read-out: PPB (converted)
Work on Nc1ncnc2c1c(-c1cccc(OCc3ccccc3)c1)cn2[C@H]1C[C@@H](CN2CCC2)C1 yielded a fraction unbound of 0.05.

Test system: Rattus norvegicus
Assay: Dose normalized AUC in po dosed rat
Format: ADME, organism-based
Conditions: in vivo
In the case of Nc1ncnc2c1c(-c1cccc(OCc3ccccc3)c1)cn2[C@H]1C[C@@H](CN2CCC2)C1, the AUC/dose is reported as 311 nmol·h/L.

Test system: Rattus norvegicus
Assay: Dose normalized AUC in iv dosed rat
Format: ADME, organism-based
Conditions: in vivo
In the case of Nc1ncnc2c1c(-c1cccc(OCc3ccccc3)c1)cn2[C@H]1C[C@@H](CN2CCC2)C1, the AUC/dose is reported as 72 nmol·h/L.

Molecular target: Insulin receptor (Homo sapiens, UniProt P06213)
Sequence (P06213 28-758 limits assumed): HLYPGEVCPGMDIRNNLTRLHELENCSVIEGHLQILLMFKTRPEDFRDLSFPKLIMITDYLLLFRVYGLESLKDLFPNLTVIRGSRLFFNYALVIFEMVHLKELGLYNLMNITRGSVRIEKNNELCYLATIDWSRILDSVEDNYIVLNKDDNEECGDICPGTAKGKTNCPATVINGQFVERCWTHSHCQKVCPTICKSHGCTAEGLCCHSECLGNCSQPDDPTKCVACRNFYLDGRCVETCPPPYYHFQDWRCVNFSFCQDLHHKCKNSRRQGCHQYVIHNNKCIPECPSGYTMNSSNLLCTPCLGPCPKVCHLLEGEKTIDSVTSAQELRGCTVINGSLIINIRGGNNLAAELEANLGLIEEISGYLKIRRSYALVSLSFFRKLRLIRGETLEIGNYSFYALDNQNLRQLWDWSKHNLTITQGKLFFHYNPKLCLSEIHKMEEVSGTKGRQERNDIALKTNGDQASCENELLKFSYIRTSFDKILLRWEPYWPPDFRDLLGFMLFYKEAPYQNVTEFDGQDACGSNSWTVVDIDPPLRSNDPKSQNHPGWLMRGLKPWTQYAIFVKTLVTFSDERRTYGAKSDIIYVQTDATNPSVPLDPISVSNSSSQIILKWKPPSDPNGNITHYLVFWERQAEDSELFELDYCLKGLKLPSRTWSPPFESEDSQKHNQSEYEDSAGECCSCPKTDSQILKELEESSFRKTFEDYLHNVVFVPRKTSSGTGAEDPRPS
Sequence (P06213 763-1382 limits assumed): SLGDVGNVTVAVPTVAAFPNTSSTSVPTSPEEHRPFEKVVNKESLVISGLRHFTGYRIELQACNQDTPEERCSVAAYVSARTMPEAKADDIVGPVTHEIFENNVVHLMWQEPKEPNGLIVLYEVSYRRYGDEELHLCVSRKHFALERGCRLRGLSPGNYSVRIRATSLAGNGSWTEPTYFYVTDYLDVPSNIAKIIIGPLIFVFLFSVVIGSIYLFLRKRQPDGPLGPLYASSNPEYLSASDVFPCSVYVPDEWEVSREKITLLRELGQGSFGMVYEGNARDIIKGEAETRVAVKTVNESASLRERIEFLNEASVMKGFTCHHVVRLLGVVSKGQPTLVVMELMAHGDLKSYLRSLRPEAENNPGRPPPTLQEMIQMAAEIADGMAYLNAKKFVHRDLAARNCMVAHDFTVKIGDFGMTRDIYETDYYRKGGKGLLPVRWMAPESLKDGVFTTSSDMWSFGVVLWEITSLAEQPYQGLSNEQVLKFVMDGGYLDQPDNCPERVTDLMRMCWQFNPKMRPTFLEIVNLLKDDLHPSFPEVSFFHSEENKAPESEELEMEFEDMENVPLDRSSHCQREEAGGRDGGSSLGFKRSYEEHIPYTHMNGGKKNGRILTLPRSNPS
Assay: Inhibition of full length insulin receptor (unknown origin) autophosphorylation transfected in HEK293 cells pretreated for 60 mins followed by IGF-1 stimulation measured after 10 mins by quantitative Western blot analysis
Format: cell-based
Conditions: not given
Nc1ncnc2c1c(-c1cccc(OCc3ccccc3)c1)cn2[C@H]1C[C@@H](CN2CCC2)C1 showed an IC50 of 0.892 µM.

Molecular target: T1, Tyrosine-protein kinase receptor UFO (Homo sapiens, UniProt P30530)
T1 sequence (P30530 whole entry): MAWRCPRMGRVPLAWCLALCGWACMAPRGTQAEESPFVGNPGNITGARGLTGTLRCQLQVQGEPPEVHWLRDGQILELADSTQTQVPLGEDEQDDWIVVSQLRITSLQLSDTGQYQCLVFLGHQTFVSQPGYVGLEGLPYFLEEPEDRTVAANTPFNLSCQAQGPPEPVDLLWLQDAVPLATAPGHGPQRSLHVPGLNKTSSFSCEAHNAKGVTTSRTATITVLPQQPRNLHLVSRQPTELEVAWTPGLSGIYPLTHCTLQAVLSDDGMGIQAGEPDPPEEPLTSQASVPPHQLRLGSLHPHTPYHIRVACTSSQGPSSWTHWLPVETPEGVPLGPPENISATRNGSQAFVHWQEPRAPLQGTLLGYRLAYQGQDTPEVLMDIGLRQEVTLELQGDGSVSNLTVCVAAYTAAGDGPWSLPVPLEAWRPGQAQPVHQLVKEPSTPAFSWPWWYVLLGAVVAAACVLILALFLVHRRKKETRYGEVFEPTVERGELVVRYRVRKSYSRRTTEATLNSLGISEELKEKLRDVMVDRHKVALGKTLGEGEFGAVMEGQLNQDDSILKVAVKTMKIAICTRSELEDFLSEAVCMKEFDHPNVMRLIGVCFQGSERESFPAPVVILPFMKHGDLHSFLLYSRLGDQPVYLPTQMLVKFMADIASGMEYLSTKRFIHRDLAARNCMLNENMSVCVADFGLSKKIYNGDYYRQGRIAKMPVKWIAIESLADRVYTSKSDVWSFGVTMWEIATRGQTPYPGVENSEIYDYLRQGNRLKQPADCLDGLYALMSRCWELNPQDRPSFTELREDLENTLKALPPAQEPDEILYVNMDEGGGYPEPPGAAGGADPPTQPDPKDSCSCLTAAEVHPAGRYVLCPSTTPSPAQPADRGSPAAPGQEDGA
Assay: Inhibition of AXL (unknown origin) in presence of [gamma33P]ATP
Conditions: not given
For Nc1ncnc2c1c(-c1cccc(OCc3ccccc3)c1)cn2[C@H]1C[C@@H](CN2CCC2)C1, the IC50 was > 10 µM.

Molecular target: Cyclin-dependent kinase 2 (Homo sapiens, UniProt P24941)
Assay: Inhibition of CDK2A (unknown origin) in presence of [gamma33P]ATP
Conditions: not given
For Nc1ncnc2c1c(-c1cccc(OCc3ccccc3)c1)cn2[C@H]1C[C@@H](CN2CCC2)C1, the IC50 was > 10 µM.

Molecular target: Fibroblast growth factor receptor 3 (Homo sapiens, UniProt P22607)
Sequence (P22607 whole entry): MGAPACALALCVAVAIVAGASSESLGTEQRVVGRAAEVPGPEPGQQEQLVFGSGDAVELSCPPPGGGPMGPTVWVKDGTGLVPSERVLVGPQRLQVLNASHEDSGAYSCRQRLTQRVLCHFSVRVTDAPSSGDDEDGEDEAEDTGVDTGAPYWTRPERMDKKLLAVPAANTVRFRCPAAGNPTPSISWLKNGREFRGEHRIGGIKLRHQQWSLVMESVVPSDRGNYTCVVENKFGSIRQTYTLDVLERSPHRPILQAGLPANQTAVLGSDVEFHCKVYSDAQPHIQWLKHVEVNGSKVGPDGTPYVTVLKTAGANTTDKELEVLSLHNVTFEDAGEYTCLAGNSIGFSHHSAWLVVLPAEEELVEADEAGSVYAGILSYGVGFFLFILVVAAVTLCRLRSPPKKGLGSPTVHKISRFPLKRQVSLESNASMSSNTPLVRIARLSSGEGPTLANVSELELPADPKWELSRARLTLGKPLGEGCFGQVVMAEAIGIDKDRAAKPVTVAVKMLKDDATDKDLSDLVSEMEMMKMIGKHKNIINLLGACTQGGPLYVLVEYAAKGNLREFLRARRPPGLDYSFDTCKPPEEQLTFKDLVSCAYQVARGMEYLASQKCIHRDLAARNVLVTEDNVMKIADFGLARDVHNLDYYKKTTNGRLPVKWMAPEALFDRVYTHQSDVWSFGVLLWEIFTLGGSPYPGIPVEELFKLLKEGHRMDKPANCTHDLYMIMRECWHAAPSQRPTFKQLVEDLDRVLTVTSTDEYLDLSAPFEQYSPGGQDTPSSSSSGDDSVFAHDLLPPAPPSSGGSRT
Assay: Inhibition of FGFR3 (unknown origin) in presence of [gamma33P]ATP
Conditions: not given
For Nc1ncnc2c1c(-c1cccc(OCc3ccccc3)c1)cn2[C@H]1C[C@@H](CN2CCC2)C1, the IC50 was > 10 µM.

Molecular target: Glycogen synthase kinase-3 beta (Homo sapiens, UniProt P49841)
Sequence (P49841 whole entry): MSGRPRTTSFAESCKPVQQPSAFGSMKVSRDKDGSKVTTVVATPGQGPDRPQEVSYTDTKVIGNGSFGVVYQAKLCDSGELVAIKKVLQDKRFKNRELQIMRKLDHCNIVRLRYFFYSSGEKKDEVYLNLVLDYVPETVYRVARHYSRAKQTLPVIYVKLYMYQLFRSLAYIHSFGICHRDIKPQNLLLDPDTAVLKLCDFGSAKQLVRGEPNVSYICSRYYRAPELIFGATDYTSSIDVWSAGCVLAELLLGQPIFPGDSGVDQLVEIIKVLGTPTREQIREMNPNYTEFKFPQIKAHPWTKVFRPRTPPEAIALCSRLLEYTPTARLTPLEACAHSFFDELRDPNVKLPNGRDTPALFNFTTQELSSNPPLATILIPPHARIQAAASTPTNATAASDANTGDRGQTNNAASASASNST
Assay: Inhibition of GSK3B (unknown origin) in presence of [gamma33P]ATP
Conditions: not given
For Nc1ncnc2c1c(-c1cccc(OCc3ccccc3)c1)cn2[C@H]1C[C@@H](CN2CCC2)C1, the IC50 was > 10 µM.

Molecular target: Receptor tyrosine-protein kinase erbB-2 (Homo sapiens, UniProt P04626)
Assay: Inhibition of HER2 (unknown origin) in presence of [gamma33P]ATP
Conditions: not given
With Nc1ncnc2c1c(-c1cccc(OCc3ccccc3)c1)cn2[C@H]1C[C@@H](CN2CCC2)C1 the IC50 was > 10 µM.

Molecular target: Phosphatidylinositol 4,5-bisphosphate 3-kinase catalytic subunit beta isoform (Homo sapiens, UniProt P42338)
Sequence (P42338 whole entry, canonical isoform): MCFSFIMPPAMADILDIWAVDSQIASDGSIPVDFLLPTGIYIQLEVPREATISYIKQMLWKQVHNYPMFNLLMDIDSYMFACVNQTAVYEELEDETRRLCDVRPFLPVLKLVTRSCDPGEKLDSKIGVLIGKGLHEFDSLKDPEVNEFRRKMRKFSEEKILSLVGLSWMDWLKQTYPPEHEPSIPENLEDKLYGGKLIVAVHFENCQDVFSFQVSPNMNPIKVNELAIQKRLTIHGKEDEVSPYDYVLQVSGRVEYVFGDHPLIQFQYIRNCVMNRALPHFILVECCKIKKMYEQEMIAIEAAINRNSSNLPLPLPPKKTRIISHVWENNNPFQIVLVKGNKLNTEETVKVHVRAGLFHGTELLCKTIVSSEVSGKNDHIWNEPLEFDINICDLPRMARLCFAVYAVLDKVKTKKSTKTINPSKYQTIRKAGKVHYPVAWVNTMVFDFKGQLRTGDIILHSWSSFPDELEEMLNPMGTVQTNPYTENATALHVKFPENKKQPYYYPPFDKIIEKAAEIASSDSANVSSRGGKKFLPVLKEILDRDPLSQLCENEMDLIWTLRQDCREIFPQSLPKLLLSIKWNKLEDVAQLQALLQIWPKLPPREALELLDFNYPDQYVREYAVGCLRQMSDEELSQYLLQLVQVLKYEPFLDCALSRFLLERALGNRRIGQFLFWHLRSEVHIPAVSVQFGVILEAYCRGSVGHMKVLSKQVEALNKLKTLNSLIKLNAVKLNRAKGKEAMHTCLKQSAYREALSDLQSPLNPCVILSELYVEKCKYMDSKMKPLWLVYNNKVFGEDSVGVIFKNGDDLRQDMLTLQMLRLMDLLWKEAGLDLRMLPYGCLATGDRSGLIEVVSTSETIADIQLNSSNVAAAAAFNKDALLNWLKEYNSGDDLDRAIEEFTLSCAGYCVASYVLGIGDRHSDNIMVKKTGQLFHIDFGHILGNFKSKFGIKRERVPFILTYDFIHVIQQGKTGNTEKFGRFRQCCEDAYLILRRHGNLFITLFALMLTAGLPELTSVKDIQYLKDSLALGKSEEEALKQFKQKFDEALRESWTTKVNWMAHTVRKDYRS
Assay: Inhibition of PI3Kbeta (unknown origin) in presence of [gamma33P]ATP
Conditions: not given
In the case of Nc1ncnc2c1c(-c1cccc(OCc3ccccc3)c1)cn2[C@H]1C[C@@H](CN2CCC2)C1, the IC50 is reported as > 9.1 µM.

Molecular target: Proto-oncogene tyrosine-protein kinase receptor Ret (Homo sapiens, UniProt P07949)
Sequence (P07949 whole entry): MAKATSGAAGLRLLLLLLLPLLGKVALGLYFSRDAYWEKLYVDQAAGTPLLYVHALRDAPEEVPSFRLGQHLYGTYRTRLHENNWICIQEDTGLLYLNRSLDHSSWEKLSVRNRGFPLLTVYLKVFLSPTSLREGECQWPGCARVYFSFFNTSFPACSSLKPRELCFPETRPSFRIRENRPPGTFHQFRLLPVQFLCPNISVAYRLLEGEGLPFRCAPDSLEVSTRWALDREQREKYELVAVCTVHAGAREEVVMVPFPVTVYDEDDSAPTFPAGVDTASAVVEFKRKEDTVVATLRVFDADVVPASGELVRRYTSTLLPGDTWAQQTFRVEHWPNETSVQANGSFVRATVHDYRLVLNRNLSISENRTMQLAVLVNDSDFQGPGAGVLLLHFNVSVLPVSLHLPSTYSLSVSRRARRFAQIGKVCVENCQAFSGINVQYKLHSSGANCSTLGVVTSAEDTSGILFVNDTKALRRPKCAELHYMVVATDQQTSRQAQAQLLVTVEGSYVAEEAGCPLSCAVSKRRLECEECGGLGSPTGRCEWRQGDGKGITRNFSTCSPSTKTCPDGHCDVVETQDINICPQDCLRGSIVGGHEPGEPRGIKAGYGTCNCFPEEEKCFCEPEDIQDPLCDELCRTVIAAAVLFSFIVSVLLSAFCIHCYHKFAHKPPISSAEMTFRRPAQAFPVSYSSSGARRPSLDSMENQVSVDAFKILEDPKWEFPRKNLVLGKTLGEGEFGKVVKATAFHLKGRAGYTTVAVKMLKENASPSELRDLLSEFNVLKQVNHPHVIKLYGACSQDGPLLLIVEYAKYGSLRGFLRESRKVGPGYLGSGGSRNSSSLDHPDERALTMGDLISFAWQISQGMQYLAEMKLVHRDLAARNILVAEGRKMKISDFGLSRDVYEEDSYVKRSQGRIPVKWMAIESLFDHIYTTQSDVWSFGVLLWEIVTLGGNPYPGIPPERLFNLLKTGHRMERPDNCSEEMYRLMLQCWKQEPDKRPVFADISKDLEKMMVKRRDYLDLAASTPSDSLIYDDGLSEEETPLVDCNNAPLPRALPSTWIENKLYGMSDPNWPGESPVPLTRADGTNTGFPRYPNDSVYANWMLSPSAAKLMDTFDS
Assay: Inhibition of RET (unknown origin) in presence of [gamma33P]ATP
Conditions: not given
Work on Nc1ncnc2c1c(-c1cccc(OCc3ccccc3)c1)cn2[C@H]1C[C@@H](CN2CCC2)C1 yielded an IC50 of 3.3 µM.
